Data on two compounds can be found in ChEMBL document CHEMBL5678818, “Discovery of potent SOS1 inhibitors that block RAS activation via disruption of the RAS-SOS1 interaction” (Proc Natl Acad Sci U S A, 2019).

Test [1] has as its target T1, Non-receptor tyrosine-protein kinase TNK1 (Homo sapiens) (UniProt Q13470).
T1 sequence (whole entry): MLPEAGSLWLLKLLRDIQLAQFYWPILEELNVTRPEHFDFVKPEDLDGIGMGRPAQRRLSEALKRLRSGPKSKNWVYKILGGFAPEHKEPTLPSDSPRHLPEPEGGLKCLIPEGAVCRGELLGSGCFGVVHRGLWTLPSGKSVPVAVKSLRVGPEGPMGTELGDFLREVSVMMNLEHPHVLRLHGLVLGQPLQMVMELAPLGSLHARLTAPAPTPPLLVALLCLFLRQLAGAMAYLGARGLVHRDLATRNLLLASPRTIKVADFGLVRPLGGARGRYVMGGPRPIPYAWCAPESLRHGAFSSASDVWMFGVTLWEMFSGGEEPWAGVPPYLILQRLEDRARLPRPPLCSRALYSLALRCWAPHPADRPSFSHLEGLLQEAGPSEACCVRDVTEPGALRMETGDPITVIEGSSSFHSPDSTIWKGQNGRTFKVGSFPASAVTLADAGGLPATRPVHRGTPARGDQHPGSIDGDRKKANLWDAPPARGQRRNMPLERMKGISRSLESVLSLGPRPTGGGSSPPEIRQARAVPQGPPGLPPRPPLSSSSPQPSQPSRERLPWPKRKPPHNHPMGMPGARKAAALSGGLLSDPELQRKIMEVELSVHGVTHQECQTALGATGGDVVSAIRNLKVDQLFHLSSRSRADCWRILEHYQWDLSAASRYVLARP
The test is described as follows: Inhibition of TNK1 (unknown origin) assessed as residual activity at 1000 nM by KINOMEscan analysis relative to control.

Test [2] addresses Mitogen-activated protein kinase 4 (Homo sapiens) (UniProt P31152). As to the kind of experiment: Inhibition of ERK4 (unknown origin) assessed as residual activity at 1000 nM by KINOMEscan analysis relative to control.
In test [3] the target is T2, Megakaryocyte-associated tyrosine-protein kinase (Homo sapiens) (UniProt P42679).
T2 sequence (whole entry): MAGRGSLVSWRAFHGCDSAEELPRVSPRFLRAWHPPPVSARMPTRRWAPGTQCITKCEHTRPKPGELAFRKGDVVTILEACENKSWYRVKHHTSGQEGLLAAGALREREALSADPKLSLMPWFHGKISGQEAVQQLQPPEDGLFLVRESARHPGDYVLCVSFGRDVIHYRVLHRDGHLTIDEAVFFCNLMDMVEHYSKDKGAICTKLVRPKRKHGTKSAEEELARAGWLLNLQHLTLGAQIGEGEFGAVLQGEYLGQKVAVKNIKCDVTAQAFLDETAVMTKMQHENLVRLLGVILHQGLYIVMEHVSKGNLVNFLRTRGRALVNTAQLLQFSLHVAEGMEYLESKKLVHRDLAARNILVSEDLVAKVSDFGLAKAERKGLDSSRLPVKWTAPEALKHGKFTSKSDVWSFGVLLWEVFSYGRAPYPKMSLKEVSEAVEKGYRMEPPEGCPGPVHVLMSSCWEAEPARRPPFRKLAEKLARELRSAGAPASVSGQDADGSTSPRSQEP
As to the kind of experiment: Inhibition of CTK (unknown origin) assessed as residual activity at 1000 nM by KINOMEscan analysis relative to control.

For test [4], the target named is T3, Phosphatidylinositol 4,5-bisphosphate 3-kinase catalytic subunit delta isoform (Homo sapiens) (UniProt O00329).
T3 sequence (whole entry): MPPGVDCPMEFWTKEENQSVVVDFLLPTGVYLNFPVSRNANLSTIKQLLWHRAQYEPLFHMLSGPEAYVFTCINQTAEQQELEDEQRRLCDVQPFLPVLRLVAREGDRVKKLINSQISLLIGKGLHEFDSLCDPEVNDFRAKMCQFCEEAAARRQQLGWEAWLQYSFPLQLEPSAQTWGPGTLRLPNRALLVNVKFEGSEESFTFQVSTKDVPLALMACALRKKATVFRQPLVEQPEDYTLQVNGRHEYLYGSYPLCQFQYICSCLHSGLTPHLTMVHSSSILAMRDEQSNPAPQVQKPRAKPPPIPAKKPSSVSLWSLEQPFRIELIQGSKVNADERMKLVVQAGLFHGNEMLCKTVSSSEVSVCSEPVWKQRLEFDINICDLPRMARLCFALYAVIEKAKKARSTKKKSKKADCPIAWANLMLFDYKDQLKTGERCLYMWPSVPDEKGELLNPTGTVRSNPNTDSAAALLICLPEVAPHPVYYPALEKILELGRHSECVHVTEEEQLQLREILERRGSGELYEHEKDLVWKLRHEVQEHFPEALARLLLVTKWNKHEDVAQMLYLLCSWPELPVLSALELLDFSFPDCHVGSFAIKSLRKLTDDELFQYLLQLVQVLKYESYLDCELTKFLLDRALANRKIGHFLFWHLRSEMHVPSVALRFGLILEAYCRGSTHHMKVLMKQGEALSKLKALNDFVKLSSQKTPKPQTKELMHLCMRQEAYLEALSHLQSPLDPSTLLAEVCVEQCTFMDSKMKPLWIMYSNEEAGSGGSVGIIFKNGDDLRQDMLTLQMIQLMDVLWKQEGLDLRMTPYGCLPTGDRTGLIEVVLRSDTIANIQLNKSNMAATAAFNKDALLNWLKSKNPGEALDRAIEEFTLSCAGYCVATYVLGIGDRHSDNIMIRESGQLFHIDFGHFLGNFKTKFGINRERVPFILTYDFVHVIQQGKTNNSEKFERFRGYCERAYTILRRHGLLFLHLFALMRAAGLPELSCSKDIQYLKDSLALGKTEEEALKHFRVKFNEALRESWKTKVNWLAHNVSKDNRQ
As to the kind of experiment: Inhibition of PIK3CD (unknown origin) assessed as residual activity at 1000 nM by KINOMEscan analysis relative to control.

Chain of Mitogen-activated protein kinase 4 (Homo sapiens) (P31152 whole entry): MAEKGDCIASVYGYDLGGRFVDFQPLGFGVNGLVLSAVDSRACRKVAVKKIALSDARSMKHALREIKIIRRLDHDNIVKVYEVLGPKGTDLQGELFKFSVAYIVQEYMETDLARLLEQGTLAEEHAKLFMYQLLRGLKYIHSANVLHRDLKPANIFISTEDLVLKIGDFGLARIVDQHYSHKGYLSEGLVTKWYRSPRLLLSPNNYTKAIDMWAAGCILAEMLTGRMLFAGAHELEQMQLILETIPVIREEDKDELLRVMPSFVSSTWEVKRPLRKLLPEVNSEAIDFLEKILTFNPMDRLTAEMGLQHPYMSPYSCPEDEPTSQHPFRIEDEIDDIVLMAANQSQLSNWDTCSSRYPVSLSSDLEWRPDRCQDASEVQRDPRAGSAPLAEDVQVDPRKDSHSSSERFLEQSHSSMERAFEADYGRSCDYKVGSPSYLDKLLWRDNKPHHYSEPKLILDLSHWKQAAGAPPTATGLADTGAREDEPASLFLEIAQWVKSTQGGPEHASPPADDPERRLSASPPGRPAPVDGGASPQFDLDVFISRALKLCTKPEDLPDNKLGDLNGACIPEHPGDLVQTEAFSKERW

On to `COc1cc2ncnc(N[C@H](C)c3cccc4ccccc34)c2cc1OC`, for which the Activity in test [1] was 100%; in test [2], 89%; in test [3], 62%; in test [4], 68%.
As for `COc1cc2nc(C)nc(N[C@H](C)c3cccc(-c4cn[nH]c4)c3)c2cc1OC`, the Activity in test [1] turned out to be 100%; in test [2] it was 92%; in test [3], 99%; in test [4] it was 96%.
